Values quoted from earlier work, collected in patent US11497761B2, “Compositions for the treatment of metastatic cancer” (priority 2019, dated 2022).

Experiments:
[1] = system: Ehrlich ascites tumor cells; settings: in vitro, Kato et al. 1971; cited from earlier work
PGC-1α = settings: cultured C2C12 myotubes; cited from earlier work
[2] = Kato et al. 1971; cited from earlier work

| Compound | anticancer activity [1] | other results |
| --- | --- | --- |
| CCCCCCCCCCCCCCCC(=O)O [Hexadecanoic, Hexadecanoic acid] | most active | – |
| CCCCCCCCCCCC(=O)O [lauric acid, dodecanoic acid] | – | expression of PGC-1α (PGC-1α): did not alter expression |
| CCCCCCCC/C=C\CCCCCCCC(=O)O [octadecenoic, octadecenoic acid] | – | solubility [2]: poorly soluble |
| CCCCCCCCCCCCCCCCCC(=O)O [octadeconoic, octadeconoic acid] | most active | – |
| lauric sucrose ester | only weak activity | – |
| octadecadienoic acid | most active | – |
